Measurements as given in ChEMBL document CHEMBL1201862, “PubChem BioAssay data set” (2004).
Each block holds one compound with its values, some of them ahead of it. Active and inactive are the calls of the source.

Columns and labels:
[1] = target: 26S proteasome non-ATPase regulatory subunit 14 (Homo sapiens, UniProt O00487); assay: inhibition of proteasome subunit RPN11 – biochemical, fluorescence polarization, uHTS hits, confirmation (AID 602368); format: functional
[2] = target: 72 kDa type IV collagenase (Homo sapiens, UniProt P08253); assay: Dose Response validation of uHTS RPN11 inhibitor hits using a MMP-2 Fluorescence assay.; format: functional
[3] = target: Prothrombin (Bos taurus, UniProt P00735); assay: thrombin protease inhibitors – biochemical, fluorescence polarization, uHTS hits, dose response (AID 602369); format: functional
[4] = target: Keap1/Nrf2 (Homo sapiens, UniProt Q14145); assay: disruptors of Keap1 binding to Nrf2 peptide – biochemical, fluorescence polarization, cherry-picked samples, dose response (AID 588683)
[5] = target: T1, Histone-lysine N-methyltransferase NSD2 (Homo sapiens, UniProt O96028); format: biochemical
T1 sequence (O96028 whole entry): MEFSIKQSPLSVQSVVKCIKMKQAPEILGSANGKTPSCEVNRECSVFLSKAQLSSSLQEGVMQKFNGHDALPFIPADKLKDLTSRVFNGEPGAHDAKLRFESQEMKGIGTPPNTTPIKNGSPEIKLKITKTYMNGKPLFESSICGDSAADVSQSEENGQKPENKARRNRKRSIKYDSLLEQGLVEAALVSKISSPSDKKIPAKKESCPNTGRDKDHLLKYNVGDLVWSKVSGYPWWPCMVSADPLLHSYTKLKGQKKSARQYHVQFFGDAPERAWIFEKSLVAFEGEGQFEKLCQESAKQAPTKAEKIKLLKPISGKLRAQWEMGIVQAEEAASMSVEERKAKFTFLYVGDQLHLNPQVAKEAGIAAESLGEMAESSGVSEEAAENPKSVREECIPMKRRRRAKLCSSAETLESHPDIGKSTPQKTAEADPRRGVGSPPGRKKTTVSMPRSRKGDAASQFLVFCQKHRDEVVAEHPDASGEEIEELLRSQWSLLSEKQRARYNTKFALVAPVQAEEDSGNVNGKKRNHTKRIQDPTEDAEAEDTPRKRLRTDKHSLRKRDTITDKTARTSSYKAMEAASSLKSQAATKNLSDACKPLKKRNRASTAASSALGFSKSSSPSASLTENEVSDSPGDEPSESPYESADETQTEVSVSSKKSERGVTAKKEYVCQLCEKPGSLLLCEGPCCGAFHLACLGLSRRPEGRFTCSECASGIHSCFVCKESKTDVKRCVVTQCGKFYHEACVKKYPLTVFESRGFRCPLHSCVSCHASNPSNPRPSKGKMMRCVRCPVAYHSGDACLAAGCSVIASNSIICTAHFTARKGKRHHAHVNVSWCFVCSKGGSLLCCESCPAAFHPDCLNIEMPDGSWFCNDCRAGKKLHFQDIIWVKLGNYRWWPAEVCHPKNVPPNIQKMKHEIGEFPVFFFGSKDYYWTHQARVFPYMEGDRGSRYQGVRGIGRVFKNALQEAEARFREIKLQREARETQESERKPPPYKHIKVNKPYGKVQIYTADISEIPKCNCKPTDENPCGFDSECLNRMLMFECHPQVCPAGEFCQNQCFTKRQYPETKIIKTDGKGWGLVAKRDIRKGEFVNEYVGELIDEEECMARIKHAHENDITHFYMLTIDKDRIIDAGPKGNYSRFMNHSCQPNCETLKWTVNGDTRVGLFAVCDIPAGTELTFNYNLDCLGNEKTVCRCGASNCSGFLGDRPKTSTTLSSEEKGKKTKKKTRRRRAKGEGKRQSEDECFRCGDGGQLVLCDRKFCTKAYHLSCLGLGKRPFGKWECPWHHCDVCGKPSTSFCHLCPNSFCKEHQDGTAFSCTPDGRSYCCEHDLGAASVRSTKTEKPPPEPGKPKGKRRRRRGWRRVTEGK

[6] = system: H9c2; assay: cells; format: functional, cell-based; settings: Rattus norvegicus, H9c2, Myocardium;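 note: confirmatory concentration-response retest of ultra-high-throughput screening hits for modulation of myocardial damage; cell death induced by hydrogen peroxide oxidative stress; compound pretreatment for 60 min then peroxide exposure for 2 h; potency is for protecting the cells against peroxide damage rather than for killing them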
[7] = target: T2, Heat shock factor protein 1 (Mus musculus, UniProt P38532); assay: enhancement of HSF1-driven luciferase signal – cell-based, NIH3T3, luminescence, dose retest, confirmation (AID 435004); format: functional;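 note: stress induced by proteasome inhibitor MG132 added 30 min after compound; luciferase reporter driven by HSF1 response element in NIH3T3 cells; actives raise luminescence as potentiators of the MG132 stress response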
T2 sequence (P38532 whole entry): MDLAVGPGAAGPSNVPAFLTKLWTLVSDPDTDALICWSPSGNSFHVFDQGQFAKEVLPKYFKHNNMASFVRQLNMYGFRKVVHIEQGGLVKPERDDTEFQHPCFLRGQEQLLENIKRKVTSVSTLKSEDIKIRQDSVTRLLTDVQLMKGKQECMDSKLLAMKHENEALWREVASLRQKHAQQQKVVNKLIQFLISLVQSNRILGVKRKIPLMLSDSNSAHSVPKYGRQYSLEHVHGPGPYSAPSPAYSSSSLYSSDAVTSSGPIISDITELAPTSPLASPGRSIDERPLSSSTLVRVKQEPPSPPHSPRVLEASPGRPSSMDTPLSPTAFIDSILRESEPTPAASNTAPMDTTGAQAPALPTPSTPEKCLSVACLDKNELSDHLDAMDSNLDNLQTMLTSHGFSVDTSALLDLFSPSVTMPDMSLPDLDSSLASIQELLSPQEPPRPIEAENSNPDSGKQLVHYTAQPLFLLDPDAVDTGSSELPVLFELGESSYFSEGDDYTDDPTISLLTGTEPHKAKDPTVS

[8] = system: Vero; assay: viability of Vero cells under compound – cytotoxicity control for flavivirus capping enzyme inhibitors (AID 588742); format: functional; settings: Chlorocebus sabaeus
[9] = Luminescence-based cell-based high throughput dose response assay to identify activators of the DAF-12 from the parasite S. stercoralis (ssDAF-12).; format: functional
[10] = target: Glucose-6-phosphate 1-dehydrogenase (Homo sapiens, UniProt P11413); assay: inhibition of Homo sapiens G6PD, dose series – biochemical, fluorescence, selectivity assay for P. falciparum G6PD inhibitor project, dose response (AID 504792); format: functional
[11] = target: T3, Mitochondrial peptide methionine sulfoxide reductase (Bos taurus, UniProt P54149); format: functional;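 note: absorbance read-out, biochemical high-throughput dose-response screen for MsrA inhibitors, confirmatory; recombinant bovine MsrA coupled to E. coli TrxB with NADPH and selenocystamine; potency is for inhibitors of MsrA activity on DMSO substrate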
T3 sequence (P54149 whole entry): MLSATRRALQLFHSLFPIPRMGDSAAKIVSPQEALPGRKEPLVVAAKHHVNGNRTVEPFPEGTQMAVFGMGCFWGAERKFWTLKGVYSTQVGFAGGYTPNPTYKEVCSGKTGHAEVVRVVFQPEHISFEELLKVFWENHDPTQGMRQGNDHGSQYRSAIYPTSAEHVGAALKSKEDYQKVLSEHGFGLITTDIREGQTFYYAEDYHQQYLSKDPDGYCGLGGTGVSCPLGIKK

[12] = system: HeLa; assay: ATP-based viability loss in HeLa cells – cell-based, CellTiter-Glo luminescence, cherry-pick samples, cytotoxicity control for MITF activator project, dose response (AID 540259); format: functional; settings: Homo sapiens
[13] = target: T4, Orexin/Hypocretin receptor type 1 (Homo sapiens, UniProt O43613); assay: Homogeneous Time Resolved Fluorescence (HTRF)-based cell-based high throughput dose response assay for antagonists of the orexin 1 receptor (OX1R; HCRTR1). [Related pubchem assays (depositor defined):AID434989, AID435008, AID463079, AID485270, AID492963, AID492964, AID492965, AID493232, AID504717, AID504718]; format: functional
T4 sequence (O43613 whole entry): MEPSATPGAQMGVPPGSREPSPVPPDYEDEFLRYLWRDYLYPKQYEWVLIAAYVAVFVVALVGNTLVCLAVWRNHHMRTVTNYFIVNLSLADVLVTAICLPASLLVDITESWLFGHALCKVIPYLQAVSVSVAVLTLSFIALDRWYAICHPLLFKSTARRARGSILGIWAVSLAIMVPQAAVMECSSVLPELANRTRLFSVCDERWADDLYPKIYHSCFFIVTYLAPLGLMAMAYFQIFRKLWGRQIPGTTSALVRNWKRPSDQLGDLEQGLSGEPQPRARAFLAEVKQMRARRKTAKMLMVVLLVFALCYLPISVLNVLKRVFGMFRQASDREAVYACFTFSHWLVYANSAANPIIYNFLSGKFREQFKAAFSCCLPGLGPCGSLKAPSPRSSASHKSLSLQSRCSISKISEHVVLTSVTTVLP

[14] = target: T4, Orexin/Hypocretin receptor type 1; assay: Fluorescence-based cell-based high throughput dose response assay for antagonists of the orexin 1 receptor (OX1R; HCRTR1). [Related pubchem assays (depositor defined):AID434989, AID435008, AID463079, AID485270, AID492963, AID492964, AID492965, AID493232, AID504717, AID504718]; format: functional
[15] = system: CHO-K1; assay: (§1) Counterscreen for antagonists of the orexin 1 receptor (OX1R; HCRTR1): Homogeneous time resolved fluorescence (HTRF)-based cell-based dose response assay to identify antagonists of the parental CHO-K1 cell line. [Related pubchem assays (depositor defined):AID434989, AID435008, AID463079, AID485270, AID492963, AID492964, AID492965, AID493232, AID504699, AID504701]; format: functional; settings: Cricetulus griseus
[16] = target: T5, Orexin receptor type 2 (Homo sapiens, UniProt O43614); assay: Counterscreen assay for antagonists of the orexin 1 receptor (OX1R; HCRTR1): Homogeneous Time Resolved Fluorescence (HTRF)-based cell-based dose response assay for antagonists of the orexin 2 receptor (OX2R; HCRTR2), run by assay provider.; format: functional
T5 sequence (O43614 whole entry): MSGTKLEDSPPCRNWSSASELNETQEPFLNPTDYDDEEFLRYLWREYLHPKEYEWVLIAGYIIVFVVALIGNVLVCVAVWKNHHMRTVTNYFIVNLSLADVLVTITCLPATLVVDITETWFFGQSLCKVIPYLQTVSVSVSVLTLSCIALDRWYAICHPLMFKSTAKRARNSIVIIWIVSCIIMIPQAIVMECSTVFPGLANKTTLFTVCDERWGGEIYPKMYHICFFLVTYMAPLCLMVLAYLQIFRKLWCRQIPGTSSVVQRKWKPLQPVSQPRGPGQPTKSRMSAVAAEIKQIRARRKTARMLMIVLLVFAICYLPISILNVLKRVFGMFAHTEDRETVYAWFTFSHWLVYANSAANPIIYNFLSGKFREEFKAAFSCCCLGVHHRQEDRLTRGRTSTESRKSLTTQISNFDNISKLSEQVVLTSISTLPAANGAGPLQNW

[17] = target: T5, Orexin receptor type 2; assay: Counterscreen assay for antagonists of the orexin 1 receptor (OX1R; HCRTR1): Fluorescence-based cell-based dose response assay for antagonists of the orexin 2 receptor (OX2R; HCRTR2), run by assay provider.; format: functional
[18] = as §1, with “Fluorescence-based” for “Homogeneous time resolved fluorescence (HTRF)-based”, “cell-based high throughput” for “cell-based”, “CHO” for “CHO-K1”; format: functional

Sequence of 26S proteasome non-ATPase regulatory subunit 14 (O00487 whole entry): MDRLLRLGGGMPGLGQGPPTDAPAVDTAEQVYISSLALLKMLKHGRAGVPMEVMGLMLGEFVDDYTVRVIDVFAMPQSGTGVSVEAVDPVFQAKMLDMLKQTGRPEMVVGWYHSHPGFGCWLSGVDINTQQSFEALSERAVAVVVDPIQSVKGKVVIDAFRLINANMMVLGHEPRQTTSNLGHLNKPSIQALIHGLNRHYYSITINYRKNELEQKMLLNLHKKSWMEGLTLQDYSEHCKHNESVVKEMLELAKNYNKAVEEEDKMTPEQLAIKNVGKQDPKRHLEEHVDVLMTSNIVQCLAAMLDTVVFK
Sequence of Glucose-6-phosphate 1-dehydrogenase (P11413 whole entry): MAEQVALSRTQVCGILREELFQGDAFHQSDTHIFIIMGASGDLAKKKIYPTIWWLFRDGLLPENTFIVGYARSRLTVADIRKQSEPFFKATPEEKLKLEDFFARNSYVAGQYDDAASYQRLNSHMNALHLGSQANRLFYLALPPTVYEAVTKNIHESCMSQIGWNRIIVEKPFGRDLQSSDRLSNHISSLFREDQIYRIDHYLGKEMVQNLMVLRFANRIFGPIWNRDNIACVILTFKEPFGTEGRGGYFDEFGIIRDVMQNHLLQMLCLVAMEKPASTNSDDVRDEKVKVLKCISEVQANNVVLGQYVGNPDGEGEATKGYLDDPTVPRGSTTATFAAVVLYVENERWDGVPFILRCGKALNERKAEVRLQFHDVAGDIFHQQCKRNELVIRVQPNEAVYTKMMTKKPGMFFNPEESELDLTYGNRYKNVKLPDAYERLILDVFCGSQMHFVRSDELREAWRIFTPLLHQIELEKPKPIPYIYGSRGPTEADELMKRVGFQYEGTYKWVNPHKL
Sequence of 72 kDa type IV collagenase (P08253 whole entry): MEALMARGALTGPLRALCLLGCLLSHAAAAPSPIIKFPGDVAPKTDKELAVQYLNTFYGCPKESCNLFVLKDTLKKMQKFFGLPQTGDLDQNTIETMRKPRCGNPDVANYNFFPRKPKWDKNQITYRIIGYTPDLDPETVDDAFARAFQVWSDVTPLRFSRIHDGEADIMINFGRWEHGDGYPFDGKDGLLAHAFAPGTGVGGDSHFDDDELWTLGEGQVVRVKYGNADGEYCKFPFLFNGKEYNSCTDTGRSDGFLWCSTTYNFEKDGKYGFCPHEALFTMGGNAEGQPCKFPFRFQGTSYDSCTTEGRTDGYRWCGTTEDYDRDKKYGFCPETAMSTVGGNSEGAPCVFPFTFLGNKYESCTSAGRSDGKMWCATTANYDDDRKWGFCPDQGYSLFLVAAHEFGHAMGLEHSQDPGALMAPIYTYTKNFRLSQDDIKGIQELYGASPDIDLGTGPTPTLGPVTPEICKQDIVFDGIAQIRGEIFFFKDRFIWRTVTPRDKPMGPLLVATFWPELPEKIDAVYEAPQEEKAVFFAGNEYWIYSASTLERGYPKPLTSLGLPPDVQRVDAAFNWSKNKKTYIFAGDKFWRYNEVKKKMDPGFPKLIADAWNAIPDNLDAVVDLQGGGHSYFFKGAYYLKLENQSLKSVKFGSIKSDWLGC
Sequence of Keap1/Nrf2 (Q16236 whole entry): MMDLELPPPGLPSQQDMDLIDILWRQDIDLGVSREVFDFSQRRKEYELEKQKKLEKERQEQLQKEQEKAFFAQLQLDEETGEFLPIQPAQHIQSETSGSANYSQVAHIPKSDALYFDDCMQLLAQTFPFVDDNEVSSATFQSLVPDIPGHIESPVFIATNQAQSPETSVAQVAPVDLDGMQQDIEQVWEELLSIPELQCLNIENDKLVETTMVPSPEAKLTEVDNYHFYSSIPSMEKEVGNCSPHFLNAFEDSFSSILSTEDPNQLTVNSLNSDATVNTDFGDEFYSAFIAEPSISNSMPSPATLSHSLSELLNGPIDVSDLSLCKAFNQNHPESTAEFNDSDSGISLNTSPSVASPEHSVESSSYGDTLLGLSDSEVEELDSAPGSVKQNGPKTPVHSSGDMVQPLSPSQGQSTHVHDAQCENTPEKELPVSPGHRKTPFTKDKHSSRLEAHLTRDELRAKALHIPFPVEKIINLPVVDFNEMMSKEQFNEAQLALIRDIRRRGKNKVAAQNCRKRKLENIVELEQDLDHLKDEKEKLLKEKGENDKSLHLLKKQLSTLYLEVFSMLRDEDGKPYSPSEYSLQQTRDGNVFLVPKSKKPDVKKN
Sequence of Keap1/Nrf2 (Q14145 whole entry): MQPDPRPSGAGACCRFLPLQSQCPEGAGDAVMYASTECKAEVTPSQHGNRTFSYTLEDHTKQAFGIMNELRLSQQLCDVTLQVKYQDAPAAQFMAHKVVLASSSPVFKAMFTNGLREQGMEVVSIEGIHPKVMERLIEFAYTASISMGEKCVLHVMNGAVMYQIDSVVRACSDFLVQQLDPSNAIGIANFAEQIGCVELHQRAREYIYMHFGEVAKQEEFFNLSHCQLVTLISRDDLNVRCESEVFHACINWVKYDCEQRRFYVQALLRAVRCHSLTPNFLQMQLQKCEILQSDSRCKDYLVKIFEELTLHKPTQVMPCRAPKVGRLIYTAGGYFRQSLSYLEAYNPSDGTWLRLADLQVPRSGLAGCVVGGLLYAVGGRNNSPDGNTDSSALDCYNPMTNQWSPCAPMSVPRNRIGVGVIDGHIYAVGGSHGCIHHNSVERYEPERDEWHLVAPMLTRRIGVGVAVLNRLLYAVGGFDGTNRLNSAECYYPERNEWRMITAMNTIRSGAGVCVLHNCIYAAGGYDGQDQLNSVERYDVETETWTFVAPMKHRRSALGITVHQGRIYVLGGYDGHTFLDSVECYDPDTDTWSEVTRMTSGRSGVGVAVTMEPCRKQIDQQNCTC

IC50 [1]: 43.6 µM (active)
IC50 [2]: 0.302 µM (active)
IC50 [3]: 87.5 µM (active)
AC50 [4]: > 52 µM (inactive)
AC50 [5]: 7.93 µM (active)
SMILES: C/C(C/C(C)=C1/SC(=S)NC1=O)=C1\SC(=S)NC1=O

SMILES: N#CC1=C(N)Oc2c(O)cc3ccccc3c2C1c1ccsc1 (stereo not drawn)
IC50 [6]: > 79 µM (inactive)
EC50 [7]: 41.5 µM (active)
CC50 [8]: > 40 µM (active)
IC50 [9]: > 67.5 µM (inactive)
IC50 [10]: > 80 µM (inactive)
IC50 [11]: 155 µM (inactive)

SMILES: CC(C)(C)C(=O)Nc1nc2cc3c(cc2s1)OCO3
AC50 [12]: 51.9 µM (active)

SMILES: COc1cc(OC)c(-c2nc3ccccc3s2)cc1OC
IC50 [13]: 0.46 µM (active)
IC50 [14]: 5.47 µM (active)
IC50 [15]: > 66.2 µM (inactive)
IC50 [16]: > 50 µM (inactive)
IC50 [17]: > 88.8 µM (inactive)
IC50 [18]: > 49.7 µM (inactive)
